Results as given in patent publication EP0646574A1, “Ketonic indane derivatives, their preparation and therapeutic application thereof” (LABORATOIRE INNOTHERA Société Anonyme, priority 1993, dated 1995).
pEC50: −log10 of the molar value.

Legend:
[1] = system: veines saphènes de lapin; experiment: contraction of isolated rabbit saphenous veins produced by KCl (40 mM); conditions: for pEC50: potentiation of KCl (40 mM) contractions of rabbit saphenous veins, read-out: DE50 (the source's name)
Excerpt: L'effet contractile est mesuré in vitro : • par la force de contraction développée par des anneaux vasculaires quiescents ou stimulés (soit électriquement soit par des agents physiologiques) et maintenus dans des conditions isométriques, • par la pression développée par des réseaux vasculaires perfusés à débit constant.
Les composés de formule (1) et leurs sels éventuels augmentent la contraction des veines saphènes animales produite par la noradrénaline et la dépolarisation (solution hyperpotassique) sans affecter, dans la majorité des cas, les réponses contractiles artérielles. A titre illustratif, les composés des exemples 3, 5, 8, 11, 13, 15, 31 (10 nM à […]) augmentent de plus de 40 % (DE50 ± 0,3 microM) les contractions des veines saphènes de lapin produites par le KCl (40 mM).

[2] = free radical scavenging with DPPH as stable free radical; conditions: DPPH model
Excerpt: L'effet "piégeur de radicaux libres" global est étudié in vitro par un modèle utilisant le 1,1-diphényl-2-picrylhydrazyl (DPPH) comme radical libre stable, méthode dérivée de celle décrite par Lamaison et col., Plantes Médic. et Phytothérapie, XXII, 1988, 231-234.

[3] = system: rat; experiment: carrageenan-induced pleurisy in the rat; format: in vivo; conditions: twice i.p. 5 mg/kg, 6 hours after carrageenan injection
Method: L'activité antiinflammatoire est démontrée par la mesure de l'inhibition de l'oedème et de la migration leucocytaire après induction d'une pleurésie chez le rat par injection de carragénine dans la cavité pleurale (Almeida et col., J. Pharmacol. Exp. Therap., 1980, 214 : 74).
A titre illustratif, les composés des exemples 21, 23 administrés deux fois en i.p. à la dose de 5 mg/kg inhibent l'oedème et la migration leucocytaire dans la cavité pleurale, 6 heures après injection de carragénine dans le modèle de la pleurésie chez le rat.

[4] = system: hyperperméabilité vasculaire induite par le zymosan; experiment: vascular hyperpermeability induced by zymosan, in vivo; conditions: 2 and 4 hours after per os 1 à 20 mg/kg
Excerpt: La perméabilité vasculaire est étudiée in vivo et in vitro par la mesure de l'extravasation d'albumine ou de colorant liant l'albumine (Bleu Evans). In vivo, l'hyperperméabilité est induite par l'injection d'une solution d'histamine, de bradykinine ou de zymosan. Les modèles in vitro permettent de réaliser des hyperpressions (sur un territoire vasculaire isolé) et/ou des réactions vasculaires inflammatoires.
A titre illustratif, les composés des exemples 28, 27, 25 diminuent l'hyperperméabilité vasculaire induite par le zymosan lorsque celle-ci est mesurée 2 et 4 heures après administration per os de 1 à 20 mg/kg.

pEC50 [1]	SMILES	augmentation des contractions des veines saphènes de lapin produites par le KCl (40 mM) [1] [%]	other results
~6.52	O=C(NN=c1c(=O)c2ccccc2c1=O)Nc1ccccn1 [exemple 11, 2.3-Dihydro-1.3-dioxo-2-[(2-pyridyl)aminocarbonylhydrazono]-1H-indène, chlorhydrate]	> 40	–
–	O=C(NN=c1c(=O)c2ccccc2c1=O)Nc1ccccc1[N+](=O)[O-] [exemple 7, 2.3-Dihydro-1.3-dioxo-2-[(2-nitrophenyl)aminocarbonylhydrazono]-1H-indène]	–	effet antiradicalaire [2]: présentent un effet antiradicalaire
–	O=C(NN=c1c(=O)c2cccc(F)c2c1=O)Nc1ccccc1 [exemple 21, 2.3-Dihydro-1.3-dioxo-4-fluoro-2-(phenylaminocarbonylhydrazono)-1H-indène]	–	migration leucocytaire dans la cavité pleurale [3]: inhibent; oedème [3]: inhibent
~6.52	Nc1ccc(NC(=O)NN=c2c(=O)c3ccccc3c2=O)cc1 [exemple 5, 2-[(4-Aminophenyl)aminocarbonylhydrazono]-2.3-dihydro-1.3-dioxo-1H-indène]	> 40	–
~6.52	Nc1cccc(NC(=O)NN=c2c(=O)c3ccccc3c2=O)c1 [exemple 3, 2-[(3-Aminophenyl)aminocarbonylhydrazono]-2.3-dihydro1.3-dioxo-1H-indène]	> 40	–
–	O=C(NN=c1c(=O)c2ccc(F)cc2c1=O)Nc1ccccc1 [exemple 27, 2.3-Dihydro-1.3-dioxo-5-fluoro-2-(phenylaminocarbonylhydrazono)-1H-indène]	–	hyperperméabilité vasculaire induite par le zymosan [4]: diminuent
–	O=C(NN=c1c(=O)c2cccc(F)c2c1=O)Nc1ccncc1 [exemple 25, 2.3-Dihydro-1.3-dioxo-4-fluoro-2-[(4-pyridyl)aminocarbonylhydrazono]-1H-indène]	–	hyperperméabilité vasculaire induite par le zymosan [4]: diminuent
–	O=C(NN=c1c(=O)c2ccccc2c1=O)Nc1ccc([N+](=O)[O-])cc1 [exemple 9, 2.3-Dihydro-1.3-dioxo-2-(4-nitrophenylaminocarbonylhydrazono)-1H-indène]	–	effet antiradicalaire [2]: présentent un effet antiradicalaire
–	O=C(NN=c1c(=O)c2cccc(F)c2c1=O)Nc1cccnc1 [exemple 23, 2.3-Dihydro-1.3-dioxo-4-fluoro-2-[(3-pyridyl)aminocarbonylhydrazono]-1H-indène]	–	migration leucocytaire dans la cavité pleurale [3]: inhibent; oedème [3]: inhibent
~6.52	O=C(NN=c1c(=O)c2ccccc2c1=O)Nc1cccc([N+](=O)[O-])c1 [exemple 8, 2.3-Dihydro-1.3-dioxo-2-[(3-nitrophenyl)aminocarbonylhydrazono]-1H-indène]	> 40	–
~6.52	O=C(NN=c1c(=O)c2ccccc2c1=O)Nc1cccnc1 [exemple 13, 2.3-Dihydro-1.3-dioxo-2-[(3-pyridyl)aminocarbonylhydrazono]-1H-indène]	> 40	–
–	O=C(NN=c1c(=O)c2ccc(F)cc2c1=O)Nc1ccc(F)cc1 [exemple 28]	–	hyperperméabilité vasculaire induite par le zymosan [4]: diminuent
~6.52	O=C(NN=c1c(=O)c2ccc(F)cc2c1=O)Nc1ccncc1 [exemple 31, 2.3-Dihydro-1.3-dioxo-5-fluoro-2-[(4-pyridyl)aminocarbonylhydrazono]-1H-indène]	> 40	–
